According to patent EP1080070B1, “ANTIANGIOGENIC DRUG TO TREAT CANCER, ARTHRITIS AND RETINOPATHY” (ABBOTT LABORATORIES, priority 1998, dated 1999):
Counter-ions that a name gives are not always drawn.

Each compound was assayed on Human Microvascular Endothelial Cells (HMVEC) (assay: Endothelial cell migration assay (modified Boyden chamber, bFGF-stimulated)). Conditions: Homo sapiens, HMVEC; 200 nM test compound; bFGF in upper chamber, 4 hours at 37 °C; percent inhibition of migration compared to a positive control.
Format: cell-based
Description: The endothelial cell migration assay was performed essentially as described by Polverini, P.J. et al., Methods Enzymol, 198: 440-450 (1991). Briefly, Human Microvascular Endothelial Cells (HMVEC) were starved overnight in DMEM containing 0.1% bovine serum albumin (BSA). Cells were then harvested with trypsin and resuspended in DMEM with 0.1% BSA at a concentration of 1.5 x 10^6 cells/mL. Cells were added to the bottom of a 48-well modified Boyden chamber (Nucleopore Corporation, Cabin John, MD). The chamber was assembled and inverted, and cells were allowed to attach for 2 hours at 37 °C to polycarbonate chemotaxis membranes (5 µm pore size) that had been soaked in 0.1% gelatin overnight and dried. The chamber was then reinverted and basic fibroblast growth factor (bFGF) and test substances were added to the wells of the upper chamber (to a total volume of 50 µL); the apparatus was then incubated for 4 hours at 37 °C. Membranes were recovered, fixed and stained (DiffQuick, Fisher Scientific, Pittsburgh, PA) and the number of cells that had migrated to the upper chamber per 10 high power fields were counted. Background migration to DMEM +0.1% BSA was subtracted and the data reported as the number of cells migrated per 10 high power fields (400X) or when results from multiple experiments were combined, as the percent inhibition of migration compared to a positive control.

Question: With `COC(=O)c1ccc(NC(=O)[C@H](CCCCN)NC(=O)OC(C)(C)C)cc1-c1ccc(O)cc1` [Example 27, methyl 5-(((2S)-6-amino-2-((tert-butoxycarbonyl)amino)hexanoyl)amino)-4'-hydroxy(1,1'-biphenyl)-2-carboxylate] as the compound, how does the inhibition at 0.2 µM read?
Answer: 28%

Question: For `COC(=O)c1ccc(NC(=O)[C@H](CCCCN)NC(C)=O)cc1-c1cccc(O)c1` [Example 14, (S)-methyl 4-[[2-(acetylamino)-6-amino-1-oxohexyl]amino]-2-(3-hydroxyphenyl)benzoate], which inhibition at 0.2 µM is on record?
Answer: 60%

Question: With `COC(=O)c1ccc(NC(=O)[C@@H](CCCCN)NC(=O)OC(C)(C)C)cc1-c1cccc(O)c1` [Example 9, (R)-methyl 4-[[6-amino-2-[[(1,1-dimethylethoxy)carbonyl]amino]-1-oxohexyl]amino]-2-(3-hydroxyphenyl)benzoate] as the compound, how does the inhibition at 0.2 µM read?
Answer: > 95%

Question: How did the inhibition at 0.2 µM turn out when `CC(=O)N[C@@H](CCCCN)C(=O)Nc1ccc(C(=O)N[C@@H](CC(=O)O)C(N)=O)c(-c2ccc(O)cc2)c1` [Example 28, (3S)-3-(((5-(((2S)-2-(acetylamino)-6-aminohexanoyl)amino)-4'-hydroxy(1,1'-biphenyl)-2-yl)carbonyl)amino)-4-amino-4-oxobutanoic acid] was run?
Answer: 59%

Question: Which inhibition at 0.2 µM does the source give for `CC(C)(C)OC(=O)C[C@H](NC(=O)Cc1ccc(N)cc1)C(=O)OC(C)(C)C` [Example 19, N-[(4-aminophenyl)acetyl]-L-aspartic acid bis(1,1-dimethylethyl) ester] here?
Answer: 32%

Question: With `CC(=O)NC(CCCCN)C(=O)Nc1ccc(C(=O)N[C@@H](CC(=O)O)C(N)=O)c(-c2cccc(O)c2)c1` (stereo partly drawn) [Example 16, (S)-N-[4-[[2-(acetylamino)-6-amino-1-oxohexyl]amino]-2-(3-hydroxyphenyl)benzoyl]-L-α-asparagine] as the compound, how does the inhibition at 0.2 µM read?
Answer: 86%

Question: For `CC(C)(C)OC(=O)N[C@@H](CCCCN)C(=O)Nc1ccc(C(=O)O)c(-c2cccc(O)c2)c1` [Example 31, 5-(((2S)-6-amino-2-((tert-butoxycarbonyl)amino)hexanoyl)amino)-3'-hydroxy(1,1'-biphenyl)-2-carboxylic acid], which inhibition at 0.2 µM is on record?
Answer: > 95%

Question: How did the inhibition at 0.2 µM turn out when `CC(=O)N[C@@H](CCCCN)C(=O)Nc1ccc(C(=O)O)c(-c2cccc(O)c2)c1` [Example 15, (S)-4-[[2-(acetylamino)-6-amino-1-oxohexyl)amino]-2-(3-hydroxyphenyl)benzoic acid] was run?
Answer: 64%

Question: For `CCOC(=O)Cc1ccc(NC(=O)[C@H](CCCCN)NC(=O)OC(C)(C)C)cc1` [Example 25, (S)-ethyl 4-[[6-amino-2-[[(1,1-dimethylethoxy)carbonyl]amino]-1-oxohexyl]amino]benzeneacetate monohydrochloride], which inhibition at 0.2 µM is on record?
Answer: 38%

Same assay, conditions: bFGF in upper chamber, 4 hours at 37 °C, percent inhibition of migration compared to a positive control

Question: `CC(=O)NC(CCCCN)C(=O)Nc1ccc(C(=O)N[C@@H](CC(N)=O)C(=O)O)cc1` (stereo partly drawn) [Example 18, (S)-N-[4-[[2-(acelylainino)-6-amino-1-oxohexyl]amino]benzoyl]-L-α-asparagine] was tested. Which “% inhibition at 200 nM test compound” value did it give?
Answer: 90%

Question: For `NC(CCCCNC(=O)OCc1ccccc1)C(=O)Nc1ccc(CC(=O)N[C@@H](CC(=O)O)C(=O)O)cc1` (some centres unmarked) [Example 20], which “% inhibition at 200 nM test compound” value is on record?
Answer: 34%

Question: For `COC(=O)c1ccc(NC(=O)[C@H](CCCCNC(=O)OCc2ccccc2)NC(C)=O)cc1-c1cccc(OCc2ccccc2)c1` [Example 12, (S)-methyl 4-[[2-(acetylamino)-6-[[(phenylmethoxy)carbonyl]amino]-1-oxohexyl]amino]2-[(3-(phenylmethoxy)phenyl benzoate], which “% inhibition at 200 nM test compound” value is on record?
Answer: 29%

Question: `CC(=O)NC(CCCCN)C(=O)Nc1ccc(C(=O)N[C@@H](CC(N)=O)C(=O)O)c(-c2ccccc2)c1` (some centres unmarked) [Example 17] was tested. Which “% inhibition at 200 nM test compound” value did it give?
Answer: >95%

Question: `COC(=O)c1ccc(NC(=O)[C@@H](CCCCN)NC(=O)OC(C)(C)C)cc1-c1ccccc1O` [Example 10, (R)-methyl 4-[[6-amino-2-[[(1,1-dimethylethoxy)carbonyl]amino]-1-oxohexyl]amino]-2-(2-hydroxypheal)benzoate] was tested. Which “% inhibition at 200 nM test compound” value did it give?
Answer: 80%
